This note sets out measurements from patent US9758544B2 (priority 2014, dated 2017).

This assay has as its system subgenomic HCV replicon in Huh-7 cells. As to the kind of experiment: microbe, parasite or virus in culture. It counts as cell-based. To be noted: Hepatitis C virus, Huh-7, 72 h, read-out: EC50 (50% inhibitory concentration) in HCV replicon cells. (A replicon is a self-replicating genome or part of one, used to study replication in cells.)

As to `[2H]C([2H])(OP(=O)(N[C@H](C)C(=O)OC(C)C)Oc1ccccc1)[C@@]1(F)O[C@@H](n2cnc3c(OCC)nc(N)nc32)[C@](C)(F)[C@@H]1O` (stereo partly shown) [Compound 2], the EC50 was < 1000 nM.
